Measured values published in patent US12263248B2, “Compounds and compositions for intracellular delivery of therapeutic agents” (ModernaTX, Inc., priority 2018, dated 2025).

How the values were obtained:
[1] = Particle size and polydispersity index of nanoparticle compositions (Zetasizer Nano ZS); type: physicochemical; conditions: for PDI (Polydispersity index): lipid nanoparticle, ±SD within one assay run (Table 37)
How it was run: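 Particle size and PDI were measured on a Zetasizer Nano ZS with the nanoparticle compositions dispersed in 1×PBS.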

[2] = Encapsulation efficiency of RNA (QUANT-IT RIBOGREEN RNA assay); type: physicochemical; conditions: for % Encapsulation: lipid nanoparticle, ±SD within one assay run (Table 37)
How it was run: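 RiboGreen fluorescence (ex ~480, em ~520 nm) compared between intact samples and Triton X-100-lysed samples after 15 min at 37 °C in TE buffer, pH 7.5. Percent free RNA is the blank-corrected intact/disrupted ratio.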

luciferase (Luc) mRNA [3] = assay: Luc expression (total flux) after intramuscular administration; type: in vivo, mice; conditions: for Total flux, 0.001 mpk Dose / Total flux, 0.01 mpk Dose: Luc mRNA and H10 mRNA; for Novel lipid/MC3 expression ratio, 6 hr. time point, i.m. Luc: relative to MC3 formulation
How it was run: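 Mice given a single intramuscular dose of lipid nanoparticle formulations carrying modified Luc mRNA, alone or with H10 mRNA, at 0.001 or 0.01 mpk total. Luciferase expression recorded as total flux.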

luciferase (Luc) mRNA [4] = assay: Luc expression in liver, lung, spleen and femur 6 hours after intravenous administration; type: in vivo; conditions: mice, intravenous, 0.5 mpk
How it was run: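 LNP-formulated mRNA given IV to mice (n=3) at 0.5 mpk; at 6 h, bioluminescence imaged ex vivo 15 min after IP D-luciferin (15 mg/mL, 200 μL), organs imaged within 25 min. Values are total flux by region of interest.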

IL-6, IP-10 = assay: Cytokine induction in mice upon intravenous administration; type: in vivo; design: Cytokine induction IL-6 / Cytokine induction IP-10: unit not given here; conditions: 0.5 mpk, 6 hours; for Cytokine induction IL-6 / Cytokine induction IP-10: intravenous
How it was run: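 Mice dosed intravenously with nanoparticle compositions at 0.5 mpk; serum cytokine concentrations (IL-6, IP-10) measured at 6 hours. MC3 formulation and PBS controls run alongside.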

[5] = Table 1A, lipid:DSPC:cholesterol:PEG-DMG 50:10:38.5:1.5 mol %
[6] = Table 1B, formulated with hEPO mRNA
[7] = Table 1C, compositions for subcutaneous administration
[8] = Table 1D, for subcutaneous administration, # formulated with hEPO mRNA
[9] = Table 1E, compositions for subcutaneous administration
[10] = lipid:DSPC:Chol:PEG-DMG (50:10:38.5:1.5), hEPO mRNA
[11] = nanoparticle composition with hEPO mRNA (Table 30)
[12] = 6 hours after intramuscular administration
[13] = 6 hours after intramuscular administration, 0.01 mpk
[14] = nanoparticle composition with mRNA encoding anti-HA antibody (Table 33)
[15] = nanoparticle of rat tolerability study (Table 43)

SMILES	PDI ([1]; Table 1A)	Size (nm) [1, 5]	PDI [1, 6]	Size (nm) [1, 6]	PDI [1, 8]	Size (nm) [1, 8]	PDI (Polydispersity index) [1]	PDI [1, 11]	EE (%) ([2]; Table 1A)	EE (%) [2, 6]	% EE [2, 8]	% Encapsulation [2]	Total flux, 0.001 mpk Dose (luciferase (Luc) mRNA [3]; [12])	Total flux, 0.01 mpk Dose (luciferase (Luc) mRNA [3]; [13])	Total Flux Femur (luciferase (Luc) mRNA [4])	Total Flux Liver (luciferase (Luc) mRNA [4])	Total Flux Lung (luciferase (Luc) mRNA [4])	Total Flux Spleen (luciferase (Luc) mRNA [4])	Cytokine induction IL-6 (IL-6, IP-10)	Cytokine induction IP-10 (IL-6, IP-10)	other results
CCCCC/C=C\C/C=C\CCCCCCCCC(CCCCCCCC/C=C\C/C=C\CCCCC)OC(=O)CCCN(C)C [MC3, DLin-MC3-DMA, reference compound]	0.11	79.7 nm	0.12	57.7 nm	0.15	69.1 nm	0.11 ± 0.04	0.220	97.3%	99.01%	98.7%	97.3 ± 1.9%	2.76E+06 p/s	3.68E+07 p/s	2.56E+06	2.57E+09	1.27E+07	2.85E+07	124.42	504.90	PDI [1, 7]: 0.09; Size (nm) [1, 7]: 56.9 nm; PDI [1, 9]: 0.10; Size (nm) [1, 9]: 62.4 nm; PDI [1, 10]: 0.114; % EE [2, 7]: 98.2%; % EE [2, 9]: 98%; EE [2, 10]: 97.22%; EE [2, 11]: 91.66%; AUC (p/s * h) (luciferase (Luc) mRNA [3]; Table 3H, intramuscular, Luc): 5.88E+08 p/s * h; Lipid/MC3 AUC (luciferase (Luc) mRNA [3]; Table 3H, intramuscular, Luc): 1; Total flux (p/s) 0.01 mpk Dose (luciferase (Luc) mRNA [3]; Table 5B, 6 hours after intramuscular administration, 0.01 mpk): 3.23E+07 p/s
CCCCCCCCCOC(=O)CCCCCCCN(CCO)CCCCCCCC(=O)OC(CCCCCCCC)CCCCCCCC [Compound 18, Heptadecan-9-yl 8-((2-hydroxyethyl)(8-(nonyloxy)-8-oxooctyl)amino)octanoate]	018	87.9 nm	0.14	73.7 nm	0.11	75.0 nm	0.04 ± 0.06	0.230	95.9%	96.95%	96.2%	97.5 ± 0.2%	–	8.84E+07 p/s	4.68E+06	2.76E+09	1.25E+07	5.15E+07	78.76	139.92	PDI [1, 10]: 0.095; Diameter [1, 14]: 76.8 nm; PDI [1, 14]: 0.16; Diameter [1, 15]: 80 nm; PDI [1, 15]: 0.19; EE [2, 10]: 97.34%; EE [2, 11]: 85.56%; EE [2, 14]: 79.3%; % EE [2, 15]: 91%; Fold increase in Luc expression relative to MC3, Intramuscular (0.01 mpk dose) (luciferase (Luc) mRNA [3]; intramuscular, 0.01 mpk): 2.01; IP-10 induction (IL-6, IP-10; i.v., in words): lowest
CCCCCCCCCCCCCCN(CCO)CCCCCCCC(=O)OC(CCCCCCCC)CCCCCCCC [Compound 2, Heptadecan-9-yl 8-((2-hydroxyethyl)(tetradecyl)amino)octanoate]	0.14	83.9 nm	–	–	–	–	–	–	93.88%	–	–	–	3.55E+06 p/s	6.16E+07 p/s	3.86E+06	4.87E+09	2.52E+07	5.77E+07	70.95	468.86	–
CCCCCCCCCOC(=O)CCCCCCCN(CCO)CCCCCCCC(=O)OCCCCCCCCC [Compound 138, Dinonyl 8,8′-((2-hydroxyethyl)azanediyl)dioctanoate]	<0.5	179.4 nm	–	–	–	–	0.14 ± 0.05	–	91.8%	–	–	91.8 ± 0.9%	2.72E+05 p/s	1.19E+06 p/s	1.58E+05	3.66E+06	9.47E+04	4.04E+06	23.38	172.56	–
CCCCCCCCCCCOC(=O)CCCCCN(CCO)CCCCCCCC(=O)OC(CCCCCCCC)CCCCCCCC [Compound 25, Heptadecan-9-yl 8-((2-hydroxyethyl)(6-oxo-6-(undecyloxy)hexyl)amino)octanoate]	0.10	85.8 nm	0.14	69.7 nm	0.13	77.6 nm	0.10 ± 0.05	0.230	95.80%	97.92%	97.8%	95.8 ± 1.0%	3.53E+06 p/s	9.96E+07 p/s	4.40E+06	2.41E+09	1.51E+07	3.11E+07	233.45	1194.13	PDI [1, 7]: 0.16; Size (nm) [1, 7]: 76.3 nm; % EE [2, 7]: 98.1%; EE [2, 11]: 87.01%; Novel lipid/MC3 expression ratio, 6 hr. time point, i.m. Luc (luciferase (Luc) mRNA [3]; intramuscular): 1.46
CCCCCCCCCOC(=O)CCCCCCCN(CCCO)CCCCCCCC(=O)OC(CCCCCCCC)CCCCCCCC [Compound 19, Heptadecan-9-yl 8-((3-hydroxypropyl)(8-(nonyloxy)-8-oxooctyl)amino) octanoate]	0.17	101.1 nm	–	–	–	–	–	–	97.21%	–	–	–	3.28E+06 p/s	2.96E+07 p/s	1.68E+06	6.33E+08	5.99E+06	1.77E+07	285.56	1468.94	PDI [1, 9]: 0.13; Size (nm) [1, 9]: 80.7 nm; % EE [2, 9]: 93%; Novel lipid/MC3 expression ratio, 6 hr. time point, i.m. Luc (luciferase (Luc) mRNA [3]; intramuscular): 3.68; IL-6 induction (IL-6, IP-10; i.v., in words): highest
